A short description of data set [1]: In vitro metabolic stability in mouse S9. The settings on record: for metabolic stability of positive controls: S9 and microsomes, in-house limits. Here is the method:
(§1) For metabolic stability samples, extractions (50 μl) were taken at each pre-determined time point and mixed with 300 μl of ice-cold methanol containing IS in a 1.5 ml centrifuge tube. Then, samples were vortexed for 2 min and centrifuged (17,950g) for 10 min. An aliquot (100 μl) of the clear supernatant was transferred into an autosampler vial and 2 μl was injected into the LC–MS/MS system.
Metabolic stability was assessed using mouse, rat and human liver microsomes, and mouse liver S9 fractions (XenoTech, LLC, Lenexa, KS, USA) were used for the in vitro assessment of phase I and II metabolism. Incubation with S9 fractions was performed in triplicate, at 2 μM SF2523 concentration as described in our previous report ([Aldhafiri et al., 2020]; [Bala et al., 2020]). The reaction was started by adding 2 μl of SF2523 at a final concentration of 2 μM. Serial samples (50 μl) were collected at selected time intervals and quenched with 300 μl of methanol spiked with 10 μl of IS (0.5 μg/ml). All of the samples were vortexed and centrifuged at 13,000g for 15 min, and the supernatant was collected and transferred to an autosampler vial and injected (2 μl) onto the LC–MS/MS system. Testosterone 7-hydroxycoumarin and diclofenac were used as positive controls to ensure that S9, microsomes and the incubation conditions were appropriate to conduct metabolism studies.
The S9 fraction and microsomal stability were expressed as the percentage of drug remaining at each time. The in vitro metabolic elimination rate constant was determined from the first-order plot of a natural logarithm of the area ratio vs. time. The slope of the linear regression equation was used to determine the elimination rate constant k (min^−1).

The nature of data set [2]: Stability of SF2523 in mouse plasma under storage conditions. In kind it is in vitro ADME. As for the experimental part: Stability in mouse plasma was assessed in triplicate at LQC and HQC concentrations at room temperature (6 h, 25 ± 5°C), and after three freeze–thaw cycles (−80°C) and long-term storage (60 days at −80°C). Additionally, the 24 h autosampler stability of extracted samples (at 4°C) was determined.

Data set [3] in a line: Gastrointestinal fluid stability (SGF, SIF, phosphate buffer). In kind it is physicochemical. The settings on record: 37°C. As for the experimental part:
Simulated GIs were prepared according to United States Pharmacopoeia (USP) specifications. Briefly, SF2523 at 10 μM concentration was incubated with simulated gastric fluid (SGF). Simulated intestinal fluid (SIF) and phosphate buffer (100 mM, pH 7.4) were kept at 37°C in a shaking water bath, each in triplicate. Samples (100 μl) were collected at 0, 15, 30, 60 and 120 min. Immediately after sample collection, 5 vols of methanol containing IS were added and samples were prepared for analysis. Stability was determined as the percentage of parent compound detected at each time point relative to the concentration at 0 min in buffer (100%) ([Wang et al., 2015]).

Data set [4] is described as follows: Blood-to-plasma ratio in mouse blood. It is filed as in vitro ADME. Here is the method: At different time points (0, 30 and 60 min) aliquots (50 μl) were collected for blood analysis, and an additional sample (120 μl) was transferred to a microcentrifuge tube and centrifuged at 4,000g for 10 min at 4°C to separate 50 μl plasma for analysis. The whole blood and plasma samples were further processed by SPE as described above. The analyte peak area ratios were used to calculate the blood-to-plasma (B/P) ratio using Equation (4).
(4) ∕PBration=Analyte concentration in whole blood/Analyte concentration in plasma

Data set [5] in a line: Plasma protein binding by rapid equilibrium dialysis. It is filed as in vitro ADME, mouse. The settings on record: mouse plasma, mean, n = 3. Here is the method:
(§2) The sample contained mouse plasma spiked with 1 or 10 μM SF2523 and was added to the sample chamber. The rapid equilibrium dialysis kit top was then sealed and incubated at 37°C on an orbital shaker at 100 rpm for 5 h.
(§3) At pre-determined times, aliquots (40 μl) were removed from the sample, and buffer chambers and mixed with an equal volume of buffer or blank plasma, respectively. The samples were further processed by SPE as described above and analyzed by LC–MS/MS. The stability, equilibrium, device recovery and PPB were calculated using the following equations ([Lindup & Orme, 1981]): (5) %Remaining at5h=[…]/Concentration0h×100 (6) %Equilibrium=Concentrationreceiver cell/Concentrationdonor cell×100 (7) %Device Recovery=Concentrationreceiver cell+Concentrationdonor cell/Concentration0h×100 (8) %Bound=Concentrationdonor cell−Conentrationreceiver cell/Concentrationdonor cell×100
Background: In equilibrium dialysis free small molecules cross a membrane that holds back macromolecules.

For the next data set, the system named is mouse plasma proteins. The data set is described as above. In kind it is in vitro ADME. As for the experimental part:
as §2, §3

A short description of data set [6]: In vitro metabolic stability in human S9. It is filed as in vitro ADME. The settings on record: S9 fraction; human S9, 2 μM; read-out: in vitro t1/2.
Data set [7] in a line: In vitro metabolic stability in mouse liver microsomes. The settings on record: read-out: in vitro t1/2. In kind it is in vitro ADME. As for the experimental part: as §1
(§4) Metabolic stability was assessed using mouse, rat and human liver microsomes, and mouse liver S9 fractions (XenoTech, LLC, Lenexa, KS, USA) were used for the in vitro assessment of phase I and II metabolism. Incubation with S9 fractions was performed in triplicate, at 2 μM SF2523 concentration as described in our previous report ([Aldhafiri et al., 2020]; [Bala et al., 2020]). The reaction was started by adding 2 μl of SF2523 at a final concentration of 2 μM. Serial samples (50 μl) were collected at selected time intervals and quenched with 300 μl of methanol spiked with 10 μl of IS (0.5 μg/ml). […]
(§5) The S9 fraction and microsomal stability were expressed as the percentage of drug remaining at each time. The in vitro metabolic elimination rate constant was determined from the first-order plot of a natural logarithm of the area ratio vs. time. […]
For orientation: Liver microsomes are a subcellular fraction often used to study metabolism.

The nature of data set [8]: In vitro metabolic stability in human liver microsomes. In kind it is in vitro ADME. The settings on record: read-out: in vitro t1/2. Here is the method:
as §1, §4, §5

The nature of data set [9]: Metabolite identification in mouse S9 fraction. In kind it is in vitro ADME. The settings on record: phase I and II, 35 min gradient LC–MS/MS. Here is the method:
For metabolite identification, mass shift analyses were performed using the same LC–MS/MS system. […] The parent drug MS/MS spectrum was used as a template model for structure identification and assuming that the fragmentation pattern of the parent drug from the production spectrum was used to deduce the structures of the metabolites ([Francis et al., 1999]). The data acquisition for the metabolite identification study was conducted using Labsolution software (Shimadzu Scientific Instruments, Columbia, MD, USA, version 5.8).

Data set [10] can be described thus: Stability of SF2523 in mouse plasma under storage conditions. It is filed as in vitro ADME. The settings on record: nominal 200 ng/ml, mean ± SD, n = 3, read-out: Stability recovery, Accuracy (%).

Where only a bound is given, the exact number is not on record here.

On to `O=c1ccc2ccc(O)cc2o1` [7-hydroxycoumarin], for which, in data set [1], the “metabolic stability of positive controls” value is “within acceptable in-house limits”.
As to `O=c1cc(N2CCOCC2)oc2c(-c3ccc4c(c3)OCCO4)csc12` [SF2523], the recovery at 6 h, 0.3 ng/ml in [2] (mouse plasma, Bench-top stability for 8 h at (21°C, 6 h), nominal 0.3 ng/ml, mean ± SD, n = 3, read-out: Stability recovery, Accuracy (%)) was found to be 95.8 ± 4.03%. Further, the recovery at 6 h, 375 ng/ml in data set [2] (mouse plasma, Bench-top stability for 8 h at (21°C, 6 h), nominal 375 ng/ml, mean ± SD, n = 3, read-out: Stability recovery, Accuracy (%)) was determined as 111.2 ± 0.21%. Further, the recovery at 60 days, 0.3 ng/ml in data set [2] (mouse plasma, Long-term stability (60 days, −80°C), nominal 0.3 ng/ml, mean ± SD, n = 3, read-out: Stability recovery, Accuracy (%)) turned out to be 103 ± 2.62%. Further, the recovery at 60 days, 375 ng/ml in data set [2] (mouse plasma, Long-term stability (60 days, −80°C), nominal 375 ng/ml, mean ± SD, n = 3, read-out: Stability recovery, Accuracy (%)) turned out to be 97.25 ± 0.35%. For the same compound, the recovery at 0.3 ng/ml in data set [2] (mouse plasma, Three freeze-thaw cycles (−80°C to room temperature), nominal 0.3 ng/ml, mean ± SD, n = 3, read-out: Stability recovery, Accuracy (%)) stood at 92.9 ± 12.3%. Moreover, the recovery at 375 ng/ml in [2] (mouse plasma, Three freeze-thaw cycles (−80°C to room temperature), nominal 375 ng/ml, mean ± SD, n = 3, read-out: Stability recovery, Accuracy (%)) amounted to 113.7 ± 0.14%. Further, the recovery at 24 h, 0.3 ng/ml in [2] (mouse, extracted plasma samples, Autosampler stability (4°C, 24 h), nominal 0.3 ng/ml, mean ± SD, n = 3, read-out: Stability recovery, Accuracy (%)) worked out at 105 ± 5.16%. For the same compound, the recovery at 24 h, 375 ng/ml in data set [2] (mouse, extracted plasma samples, Autosampler stability (4°C, 24 h), nominal 375 ng/ml, mean ± SD, n = 3, read-out: Stability recovery, Accuracy (%)) was 103 ± 1.13%. Moreover, in data set [2] (under a variety of storage conditions), the parent drug remaining was more than 90%. For the same compound, the parent remaining was more than 90% in data set [3] (phosphate buffer pH 7.4, 10 μM, after 2 h); more than 90% in [3] (simulated gastric fluid (SGF), pH 1.2, 10 μM, after 1 h); more than 90% in data set [3] (simulated intestinal fluid (SIF), pH 6.8, 10 μM, after 2 h). The B/P in [4] (At 0.1 μg/ml, time point 0 min) is on record as 0.85; in data set [4] (At 0.1 μg/ml, time point 30 min) it was 0.98; in [4] (At 0.1 μg/ml, time point 60 min) it was 0.83; in data set [4] (At 1 μg/ml, time point 0 min) it was 0.85; in data set [4] (At 1 μg/ml, time point 30 min), 0.93; in [4] (At 1 μg/ml, time point 60 min) it was 0.93. Moreover, the blood plasma ratio at 0.1 μg/ml in data set [4] (whole blood, 0.1 μg/ml, overall value, read-out: blood-to-plasma ratio (B/P)) is 0.88. Moreover, the blood plasma ratio at 1 μg/ml in [4] (whole blood, 1 μg/ml, overall value, read-out: blood-to-plasma ratio (B/P)) was determined as 0.9. Also, the fraction unbound at 5 h, 1 µM in data set [5] (at 1 µM, read-out: Percentage plasma protein bound (converted)) was 0.0418. Further, the fraction unbound at 5 h, 10 µM in data set [5] (at 10 µM, read-out: Percentage plasma protein bound (converted)) was 0.0327. For the same compound, in data set [5] (mouse, mouse plasma in rapid equilibrium dialysis device, rapid equilibrium dialysis device, read-out: Percentage device recovery), the recovery at 5 h is more than 90%. The “Percentage remaining at 5 h (stability)” value with mouse plasma proteins (mouse plasma, 37°C, 5 h incubation, mean, n = 3) came out at 99.06%. Further, the “bound to mouse plasma proteins” value in the data set on mouse plasma proteins (mouse plasma, both tested concentrations) was more than 95%. This compound yielded a Percentage device recovery in the data set on mouse plasma proteins (rapid equilibrium dialysis device, mouse plasma, mean, n = 3) of 98.58%. The half-life at 2 μM in data set [1] (mouse, liver S9 fraction) was less than 2 min; in [6], less than 2 min; in data set [7], less than 2 min; in data set [8], less than 2 min. Also, the “number of metabolites identified” value in data set [9] was “Seven”. Besides, in data set [10] (mouse plasma, Bench-top stability for 8 h at (21°C, 6 h)), the recovery at 6 h, 200 ng/ml came out at 107 ± 4.5%. The recovery at 60 days, 200 ng/ml in [10] (mouse plasma, Long-term stability (60 days, −80°C)) was determined as 103 ± 11.2%. In addition, the recovery at 200 ng/ml in data set [10] (mouse plasma, Three freeze-thaw cycles (−80°C to room temperature)) worked out at 101 ± 5%. Also, the recovery at 24 h, 200 ng/ml in data set [10] (mouse, extracted plasma samples, Autosampler stability (4°C, 24 h)) was found to be 101 ± 1.77%.
As to `O=C(O)Cc1ccccc1Nc1c(Cl)cccc1Cl` [diclofenac], in [1], the “metabolic stability of positive controls” value is reported as “within acceptable in-house limits”.
For `CC(C)NCC(O)COc1cccc2ccccc12` (stereo not drawn) [propranolol, reference compound], in the data set on mouse plasma proteins (compared with limits reported in the literature (Barber et al., 1978)), the “plasma protein binding of positive control drugs” value is reported as “within the acceptable limits”.
For `C[C@]12CC[C@H]3[C@@H](CCC4=CC(=O)CC[C@@]43C)[C@@H]1CC[C@@H]2O` [testosterone], the “metabolic stability of positive controls” value in data set [1] is reported as “within acceptable in-house limits”.

The record behind these values is paper PMC13492205, “LC–MS/MS method for the quantitation of a dual PI3K/BRD4 inhibitor SF2523 in mouse plasma: Application to plasma protein binding and metabolism studies” (Biomedical chromatography : BMC, 2023).
